Results as given in US20250090510A1, “eIF4G1-eIF1 INHIBITORS AND USE THEREOF” (YEDA RESEARCH AND DEVELOPMENT CO. LTD., priority 2022, published 2025).

Biological target: T1, eIF1 (Homo sapiens, UniProt P41567)
T1 construct: made in house; host or cells: E. coli BL21
Test: Intrinsic fluorescence of His-eIF1
Type: binding
Settings: 0-256 μM, 5 minutes
Excerpt: FIGS. 1A-G: Identification and initial characterization of eIF1-eIF4G1 inhibitors using a high-throughput drug screen (HTS). (1A) A flowchart describing the steps of the recombinant eIF1-eIF4G1 split-RL HTS. (1B) Selection of drugs that inhibit leaky scanning. HEK293T cells were transfected with a short 5′UTR bearing GFP reporter gene described on the top, treated with the indicated HTS hits, and then analyzed by western blot with GFP antibody. US and DS denote upstream and downstream AUG initiation sites, respectively. (1C) A graph showing the change in the ratio of the upstream and downstream AUG following treatment with the indicated drugs. (1D) The chemical structure of the eIF1-eIF4G1 inhibitors, i14G1-10 and i14G1-12. (1E) His-tagged eIF4G1 and His-tagged eIF1 were expressed in BL21 bacteria and purified using nickel NTA beads. Purified His-tagged eIF4G1 and His-tagged eIF1 were incubated with the indicated doses of either i14G1-10 (0-256 μM) or i14G1-12 (0-256 μM) for 5 minutes, followed by fluorescence measurement. […] IC50 was calculated using Graphpad prism 9. […]
Intrinsic fluorescence of His-eIF1 and His-eIF4G1. […] After 5 minutes, fluorescence (280/350) was measured on Cytation 5 multi-mode reader (Biotek). The fluorescence intensity values corresponding to respective concentration in both i14G1-10 and i14G1-12 treatments were plotted and IC50 was calculated using GraphPad Prism 9.0. […]

T1 sequence (P41567 whole entry): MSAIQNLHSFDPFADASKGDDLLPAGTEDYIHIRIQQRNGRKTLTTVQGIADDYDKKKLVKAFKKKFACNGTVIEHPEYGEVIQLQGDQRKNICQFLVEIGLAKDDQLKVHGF

IC50 (excitation 274 nm, emission 304 nm, read-out: IC-50, decrease of eIF1 intrinsic fluorescence) [µM]	SMILES	intrinsic fluorescence of eIF1
–	O=C(/C=C/Sc1ccc(C(F)(F)F)cn1)c1ccccc1 [i14G1-10]	almost unchanged
54	Cn1ccnc1S/C(=C/C=C(C#N)C#N)c1ccc(Cl)cc1 [i14G1-12]	–
